Two compounds from PubChem BioAssay (NCI) can be followed below.

Each structure is given as a SMILES string.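 How tested: cells in 96-well plates exposed to compound for 48 hours at five concentrations. TGI denotes the concentration required for complete inhibition of growth.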

Some test systems named below: HL-60(TB) leukemia; OVCAR-4 ovarian; SK-MEL-2 melanoma; CAKI-1 renal; SF-539 CNS; A498 renal; RPMI-8226 leukemia; DU-145 prostate; LOX IMVI melanoma; SW-620 colon; HS 578T breast.
What all share (assay): DTP human tumour cell line panel, 48 h

In general, TGI refers to the concentration giving total growth inhibition. Turning to `CCCC(=O)O[C@H]1C=C2C[C@@]34SS[C@]5(CC6=C[C@H](OC(C)=O)[C@@H]7O[C@@H]7[C@H]6N5C3=O)C(=O)N4[C@@H]2[C@H]2O[C@H]21`, the total growth inhibition concentration (TGI) in the assay on HL-60(TB) leukemia came to 2710 nM; with OVCAR-4 ovarian, 887 nM; in the assay with SK-MEL-2 melanoma it was 296 nM; in the assay with CAKI-1 renal, 1090 nM; in the assay with SF-539 CNS, 932 nM; with A498 renal it was 69.7 nM. The TGI in the assay with RPMI-8226 leukemia was 2290 nM; with DU-145 prostate it was 362 nM; in the assay on LOX IMVI melanoma, 131 nM; in the assay with SW-620 colon, 671 nM; in the assay on HS 578T breast, 18600 nM.

As to `CC1(C)CC23CC(C)(C)c4cccc(c42)OCc2ccc4ccc5ccc(nc5c4n2)COc2cccc1c23`, the TGI with HL-60(TB) leukemia, with OVCAR-4 ovarian, in the assay with SK-MEL-2 melanoma, in the assay with CAKI-1 renal, in the assay on SF-539 CNS and in the assay on A498 renal was > 50000 nM in each case. Also, the TGI in the assay on RPMI-8226 leukemia, with DU-145 prostate, in the assay with LOX IMVI melanoma, in the assay on SW-620 colon and in the assay with HS 578T breast was > 50000 nM each time.
